Test systems include SW-620 colon; HCT-15 colon; OVCAR-4 ovarian; EKVX NSCLC; SK-OV-3 ovarian; K-562 leukemia; UACC-62 melanoma; SK-MEL-28 melanoma; NCI-H460 lung; RPMI-8226 leukemia.
Common to all, as to experiment: NCI-60 cell line screen, 48 h

Molecules are shown by their SMILES.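 Test compounds were applied to cells in 96-well plates for 48 hours at 5 doses. Here, GI50 denotes the concentration required for 50% inhibition of growth. TGI is the concentration that stops growth completely.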

For the molecule `CCn1c(O)c(C=N)c(=O)n(CC)c1=O`, the TGI in the assay on SW-620 colon, in the assay with HCT-15 colon, with OVCAR-4 ovarian, in the assay on EKVX NSCLC, in the assay with SK-OV-3 ovarian and in the assay on K-562 leukemia was more than 100 µM in each case. Moreover, the TGI in the assay with UACC-62 melanoma, with SK-MEL-28 melanoma and in the assay on NCI-H460 lung was more than 100 µM in each case.

Take `Cc1ccc(NC(=O)CCC/C(CC(=O)c2ccc(Br)cc2)=N/NC(=O)CC#N)cc1`: the TGI in the assay with SW-620 colon, in the assay with OVCAR-4 ovarian, in the assay on EKVX NSCLC, in the assay with UACC-62 melanoma, in the assay on SK-MEL-28 melanoma and in the assay on RPMI-8226 leukemia was more than 100 µM each time. The molecule also displayed a TGI in the assay with NCI-H460 lung of more than 100 µM.

For the molecule `CC(C)CNc1nc(-c2ccccc2)nc2ccccc12`, the GI50 was more than 100 µM in the assay on HCT-15 colon; 13.5 µM in the assay on OVCAR-4 ovarian; 15.3 µM in the assay with SK-OV-3 ovarian; 11.1 µM with K-562 leukemia; 14.6 µM in the assay on UACC-62 melanoma; 17.3 µM in the assay on SK-MEL-28 melanoma. Further, the results for the GI50 in the assay with RPMI-8226 leukemia and with NCI-H460 lung were 4.31 µM and 17.2 µM, respectively. For the same molecule, the TGI in the assay on HCT-15 colon is more than 100 µM; with OVCAR-4 ovarian, 30 µM; in the assay with SK-OV-3 ovarian, 31.3 µM; in the assay with K-562 leukemia, 30.8 µM; in the assay on UACC-62 melanoma, 29.4 µM; in the assay with SK-MEL-28 melanoma it was 32.7 µM. The TGI with RPMI-8226 leukemia came out at 20.3 µM; with NCI-H460 lung, 41.1 µM.

`Cc1cc(N2CCCC2)nc(NC2CCCC(Nc3ccnc4cc(Cl)ccc34)C2)n1` (stereo unspecified): the GI50 in the assay with SW-620 colon is 1.27 µM; in the assay with HCT-15 colon, 1.02 µM; in the assay with OVCAR-4 ovarian, 1.52 µM; with EKVX NSCLC, 1.86 µM; in the assay on SK-OV-3 ovarian it was 1.86 µM; in the assay with UACC-62 melanoma, 1.92 µM. The GI50 in the assay with SK-MEL-28 melanoma is 1.77 µM; in the assay on RPMI-8226 leukemia, 0.322 µM. In addition, the TGI in the assay on SW-620 colon worked out at 3.25 µM; with HCT-15 colon it was 2.44 µM; in the assay on OVCAR-4 ovarian it was 5.27 µM; with EKVX NSCLC, 5.02 µM; in the assay with SK-OV-3 ovarian, 3.49 µM; in the assay on UACC-62 melanoma, 3.57 µM. Also, the values for the TGI in the assay on SK-MEL-28 melanoma and in the assay with RPMI-8226 leukemia were 3.43 µM and 1.4 µM, respectively.

For the molecule `COc1ccc(-c2ccc(/C=N/n3c(COc4ccc(Cl)cc4Cl)nn(CN4CCN(C)CC4)c3=S)o2)c([N+](=O)[O-])c1`, the GI50 with HCT-15 colon was 17 µM; in the assay on OVCAR-4 ovarian, 59.7 µM; in the assay with SK-OV-3 ovarian it was 30.8 µM; in the assay with K-562 leukemia, 22.2 µM; in the assay on SK-MEL-28 melanoma, 47.8 µM; in the assay with RPMI-8226 leukemia it was 9.37 µM. The GI50 in the assay on NCI-H460 lung was 15 µM. Further, the TGI is 35.4 µM with HCT-15 colon; more than 100 µM with OVCAR-4 ovarian; 80.7 µM in the assay on SK-OV-3 ovarian; more than 100 µM with K-562 leukemia; more than 100 µM in the assay on SK-MEL-28 melanoma; 50 µM with RPMI-8226 leukemia. This molecule showed a TGI in the assay with NCI-H460 lung of 45.1 µM.

In the case of `COC(=O)C(=O)C(C#N)c1ccc(CC#N)cc1` (stereo unspecified), the TGI in the assay with SW-620 colon, with HCT-15 colon, in the assay on EKVX NSCLC, in the assay with SK-OV-3 ovarian, in the assay on K-562 leukemia and in the assay on UACC-62 melanoma was more than 100 µM throughout. The TGI in the assay with SK-MEL-28 melanoma and in the assay with RPMI-8226 leukemia was more than 100 µM each time.

As to `Cc1nc2cc(N)c(F)cc2[nH]1`, the TGI in the assay on SW-620 colon, in the assay with OVCAR-4 ovarian, in the assay on EKVX NSCLC, in the assay on SK-OV-3 ovarian, in the assay on K-562 leukemia and in the assay on UACC-62 melanoma was more than 100 µM throughout. In addition, the TGI with SK-MEL-28 melanoma and with NCI-H460 lung was more than 100 µM in each case.

`COC(=O)C12CC(c3ccccc31)C1C(=O)OC(=O)C12` (stereo unspecified): the TGI in the assay on SW-620 colon, in the assay on HCT-15 colon, in the assay on OVCAR-4 ovarian, with EKVX NSCLC, in the assay on K-562 leukemia and with UACC-62 melanoma was more than 100 µM each time. For the same molecule, the TGI in the assay with SK-MEL-28 melanoma, with RPMI-8226 leukemia and in the assay on NCI-H460 lung was more than 100 µM in each case.

In the case of `COc1ccc(CNc2c3ccccc3nc3ccc(OC)cc23)cc1`, the GI50 in the assay on SW-620 colon is 2.08 µM; in the assay with HCT-15 colon, 2.27 µM; in the assay with OVCAR-4 ovarian it was 2.94 µM; in the assay on EKVX NSCLC, 3.15 µM; with SK-OV-3 ovarian it was 4.83 µM; in the assay on K-562 leukemia it was 2.27 µM. Also, the GI50 in the assay on UACC-62 melanoma is 1.79 µM; in the assay on SK-MEL-28 melanoma it was 1.88 µM; with NCI-H460 lung it was 2.46 µM. For the same molecule, the TGI turned out to be 7.22 µM with SW-620 colon; 6.18 µM in the assay on HCT-15 colon; 10.5 µM in the assay on OVCAR-4 ovarian; 12.2 µM in the assay on EKVX NSCLC; 17.2 µM in the assay on SK-OV-3 ovarian; 11.1 µM in the assay on K-562 leukemia. Also, the TGI was found to be 3.75 µM in the assay with UACC-62 melanoma, 3.68 µM in the assay with SK-MEL-28 melanoma and 6.41 µM in the assay with NCI-H460 lung.

As for `CCOC(=O)C1=C(Nc2ccc(Cl)cc2Cl)OC/C1=N\NS(=O)(=O)c1ccc(C)cc1`, the TGI with SW-620 colon, with HCT-15 colon, in the assay on OVCAR-4 ovarian, in the assay with EKVX NSCLC, in the assay with SK-OV-3 ovarian and with K-562 leukemia was more than 100 µM throughout. In addition, the TGI in the assay with UACC-62 melanoma, in the assay with SK-MEL-28 melanoma and in the assay on NCI-H460 lung was more than 100 µM each time.

In the case of `Cc1cc(N2CCN(c3ccnc4cc(Cl)ccc34)CC2)nc(NC2CCCCC2)n1`, the GI50 is 1.87 µM in the assay with SW-620 colon; 1.55 µM with HCT-15 colon; 2.08 µM in the assay on OVCAR-4 ovarian; 2.02 µM with SK-OV-3 ovarian; 2.1 µM in the assay on K-562 leukemia; 1.66 µM in the assay on UACC-62 melanoma. The values for the GI50 in the assay with RPMI-8226 leukemia and with NCI-H460 lung were 1.85 µM and 1.88 µM, respectively. The TGI was 4.35 µM in the assay with SW-620 colon; 3.44 µM in the assay with HCT-15 colon; 8.77 µM in the assay on OVCAR-4 ovarian; 4.51 µM in the assay on SK-OV-3 ovarian; 5.64 µM in the assay with K-562 leukemia; 3.34 µM in the assay with UACC-62 melanoma. The TGI in the assay with RPMI-8226 leukemia came to 4.8 µM; in the assay on NCI-H460 lung, 3.71 µM.

As to `CN1CCCCCC(=N\O)/C(=N/O)CCCCC1`, the TGI with SW-620 colon, in the assay on HCT-15 colon, with EKVX NSCLC, in the assay with K-562 leukemia, with SK-MEL-28 melanoma and in the assay with NCI-H460 lung was more than 100 µM throughout.

Source of the values: PubChem BioAssay (NCI).
